# In patent US4203253A, “Process for increasing oleoresin synthesis in pinus species” (priority 1979, dated 1980):
# Like-named read-outs stand apart in the source and are kept apart here.
# Assays:
# rats = conditions: cited from earlier work
# [1] = system: slash pine (Pinus elliottii Engelm. var. elliottii); assay type: in vivo; conditions: for Rosin yield: 6 months, extracted dry weight
# Protocol: (§1) On Sept. 14, 1973, replicate slash pine (Pinus elliottii Engelm. var. elliottii) were treated with 5 milliliters of either 1 percent (wt.) paraquat, 1 percent (wt.) diquat, 1percent (wt.) diquat plus 5 percent (wt.) 2-chloroethylphosphonic acid or 5 percent (wt.) 2-chloroethylphosphonic acid solutions placed in a bore hole. Each type of treatment was applied to 25 trees selected at random. One tree from each treatment was cut in January 1974. […] Six trees from each treatment were cut in March of 1974, approximately 6 months after treatment.
# [2] = system: slash pine (Pinus elliottii Engelm. var. elliottii); experiment: Oleoresin content and visible lightwood height in slash pines 26 months after treatment (Example IV, Table IV); assay type: in vivo; conditions: for Oleoresin content / Oleoresin content, average per unit total volume: 26 months; for Oleoresin content: extracted dry weight; for Visible lightwood height: 26 months after treatment
# Protocol: as §1
# [3] = system: slash pine (Pinus elliottii Engelm. var. elliottii); experiment: Average lightwood heights in slash pines (Example V, Table V); assay type: in vivo; conditions: for Average lightwood height: 0% 2-chloroethylphosphonic acid
# Protocol: On October 6 and 7, 1975, a study was begun using replicate slash pine (Pinus elliottii Engelm. var. elliottii) to explore the action of 2-chloroethylphosphonic acid in combination with diquat and/or paraquat. Each tree in the study was treated three times. The first treatment was in October in 1975, the second in March of 1976, and the third in September of 1976. Each time 5 milliliters of a solution of 2-chloroethylphosphonic acid plus paraquat and/or diquat were applied to the tree in a bore hole angled to intersect approximately one-sixth of the trunk. After treatment, the bore hole was stoppered to prevent the escape of ethylene. The trees were cut during November and December of 1976.
# ^a Measured from point of treatment application.
# [4] = system: slash pine (Pinus elliottii Engelm. var. elliottii); assay type: in vivo; conditions: 0% 2-chloroethylphosphonic acid, 1.6 years
# [5] = system: red pine (Pinus resinosa); experiment: Nonvolatile extractives and dry weight of treated red pine (Example I, Table I); assay type: in vivo; conditions: for Nonvolatile extractives, entire cross section: extracted dry weight
# Description: Replicate 20-year-old plantation-grown red pine (Pinus resinosa) of a given diameter class were coned with a watertight cup. Three-hundred milliliters of 2-chloroethylphosphonic acid in various concentrations were placed in the cups, and shallow cuts one-third the circumference were made with a chisel into the xylem portion of the bole under the solution, at approximately 1.5 meters above the ground level. The treatment solution was normally adsorbed within a 24-hour period; this depended, however, on climatic conditions such as temperature and relative humidity. Trees were sacrificed 6 months after treatment and analyzed for nonvolatile extractives at given distances from the point of application, over the entire cross-section of the tree, except where noted (Table I).
# ^a Trees treated 5/26/76 and harvested 11/2/76. Each tree received 30
# milliliters of the indicated concentration of 2chloroethylphosphonic acid
# ^b Distance in cm from point of treatment application.
# ^c Ovendry weight/fresh weight.
# ^d Percentage nonvolatile extractives based on the extracted dry
# weight of a sample of the entire cross section.
# ^e Weight percentage 2chloroethylphosphonic acid in 300 milliliters o
# the aqueous treatment solution.
# ^f Percentage nonvolatile extractives isolated from the visible
# lightwood portion of each cross section based on the extracted dry weight
# basis of the visible lightwood portion of each cross section.
# ^g Control trees were wounded and treated with water in the same
# manner as the 2chloroethylphosphonic acidtreated trees.
# [6] = system: slash pine (Pinus elliottii Engelm. var. elliottii); experiment: Percent oleoresin in slash pine 2 1/2 years after treatment (Example II, Table II); assay type: in vivo; conditions: for Percent oleoresin: dry weight of section
# Protocol: Replicate 40-year-old-slash pine (Pinus elliottii Engelm. var. elliottii) were treated with 5-milliliter aliquotes of 5 percent 2-chloroethylphosphonic acid in bore holes 0.6 meter above the ground. The trees were harvested in March, 1976, 21/2 years after treatment. Analysis of total extractives was made for given portions of the bole beginning 0.5 meter below the point of treatment application (Table II).
# ^a Percentage based on the dry weight of that section of the tree.
# ^b Control trees were wounded and treated with water.
# [7] = cited from earlier work
# [8] = system: endogenous ethylene production; conditions: systemically applied; cited from earlier work
# mice = conditions: asphyxiation by exclusion of oxygen; cited from earlier work
# [9] = distance above wound printed "0.05" m
# [10] = bipyridilium 0.5% (wt) in total
# [11] = 0.213 wt%, distance printed "+="
# [12] = 1.064 wt%, distance "30." [sic]
smiles,measurement,setting,value
CCCN [n-propylamine],LD50 dosage,rats,560 mg/kg
c1cc[n+]2c(c1)-c1cccc[n+]1CC2 [diquat],Rosin yield,[1]; 0 m above wound,5.5 Pct
same,Rosin yield,[1]; 0.5 m above wound,2.1 Pct
same,Rosin yield,[1]; 1 m above wound,2.3 Pct
same,Height of oleoresin soaked wood (visible lightwood),[1]; in vivo,less than diquat plus 2-chloroethylphosphonic acid-treated trees
same,Oleoresin content,[2]; 0.5-1 m above wound,9.6%
same,Oleoresin content,[2]; 1-1.5 m above wound,4.5%
same,Oleoresin content,[2]; 1.5-2.5 m above wound,3.5%
same,Oleoresin content,[2]; 2.5-4.5 m above wound,2.8%
same,Oleoresin content,[2]; 4.5-6.5 m above wound,1.9%
same,Visible lightwood height,[2],2.5-3 meters
same,"Oleoresin content, average per unit total volume",[2],4.1%
same,Oleoresin content,[2]; [9],8.9%
same,Average lightwood height,[3]; [10],1.8 meters
same,Average lightwood height,[3]; bipyridilium 2% (wt) in total,3.1 meters
same,Extractive content in total merchantable length,[4]; bipyridilium 0.5% (wt),15.2 lbs. extractives per average tree
same,Extractive content in total merchantable length,[4]; bipyridilium 2% (wt),17.3 lbs. extractives per average tree
same,LD50 dosage,rats,100 mg/kg
O=P(O)(O)CCCl [2-chloroethylphosphonic acid],Dry weight (ovendry weight/fresh weight),"[5]; 0.0213 wt%, +15 cm from application",44.5 Pct
same,"Nonvolatile extractives, entire cross section","[5]; 0.0213 wt%, +15 cm",3.7 Pct
same,Dry weight (ovendry weight/fresh weight),"[5]; 0.0213 wt%, +50 cm from application",46.6 Pct
same,"Nonvolatile extractives, entire cross section","[5]; 0.0213 wt%, +50 cm",3.4 Pct
same,Dry weight (ovendry weight/fresh weight),"[5]; 0.0213 wt%, -15 cm from application",43.1 Pct
same,"Nonvolatile extractives, entire cross section","[5]; 0.0213 wt%, -15 cm",3.1 Pct
same,Dry weight (ovendry weight/fresh weight),"[5]; 0.213 wt%, +15 cm from application",44.8 Pct
same,"Nonvolatile extractives, entire cross section","[5]; 0.213 wt%, +15 cm",3.2 Pct
same,Dry weight (ovendry weight/fresh weight),"[5]; 0.213 wt%, -15 cm from application",45.5 Pct
same,"Nonvolatile extractives, entire cross section","[5]; 0.213 wt%, -15 cm",3.4 Pct
same,Dry weight (ovendry weight/fresh weight),[5]; [11],46.5 Pct
same,"Nonvolatile extractives, entire cross section",[5]; [11],3.4 Pct
same,Increase of extractive content versus water-treated controls,"[5]; 1.064 percent (wt.), red pine, 6 months",Doubling of the extractive content
same,Dry weight (ovendry weight/fresh weight),"[5]; 1.064 wt%, +50 cm from application",56.7 Pct
same,"Nonvolatile extractives, entire cross section","[5]; 1.064 wt%, +50 cm",7.2 Pct
same,"Nonvolatile extractives, visible lightwood portion","[5]; 1.064 wt%, +50 cm",18.8 Pct
same,Dry weight (ovendry weight/fresh weight),"[5]; 1.064 wt%, +110 cm from application",50.3 Pct
same,"Nonvolatile extractives, entire cross section","[5]; 1.064 wt%, +110 cm",3.4 Pct
same,Dry weight (ovendry weight/fresh weight),"[5]; 1.064 wt%, +150 cm from application",50.1 Pct
same,"Nonvolatile extractives, entire cross section","[5]; 1.064 wt%, +150 cm",3.8 Pct
same,Dry weight (ovendry weight/fresh weight),"[5]; 1.064 wt%, -15 cm from application",54.1 Pct
same,"Nonvolatile extractives, entire cross section","[5]; 1.064 wt%, -15 cm",4.0 Pct
same,Dry weight (ovendry weight/fresh weight),[5]; [12],58.9 Pct
same,"Nonvolatile extractives, entire cross section",[5]; [12],6.2 Pct
same,"Nonvolatile extractives, visible lightwood portion",[5]; [12],9.3 Pct
same,Dry weight (ovendry weight/fresh weight),"[5]; 2.127 wt%, +15 cm from application",67.8 Pct
same,"Nonvolatile extractives, entire cross section","[5]; 2.127 wt%, +15 cm",3.1 Pct
same,Dry weight (ovendry weight/fresh weight),"[5]; 2.127 wt%, +50 cm from application",69.7 Pct
same,"Nonvolatile extractives, entire cross section","[5]; 2.127 wt%, +50 cm",3.1 Pct
same,Dry weight (ovendry weight/fresh weight),"[5]; 2.127 wt%, -15 cm from application",66.5 Pct
same,"Nonvolatile extractives, entire cross section","[5]; 2.127 wt%, -15 cm",5.4 Pct
same,Change in dry weight percentage (oven dry weight/fresh weight),"[5]; treated trees, dehydration",increase in dry weight percentage
same,Increase in extractives in visibly lightered portions versus control trees,[5]; visible lightering portions of cross section,three to six times that of control trees
same,Percent oleoresin,"[6]; 5% (wt), 0-3 m from application, 2 1/2 years",4.3%
same,Percent oleoresin,"[6]; 5% (wt), 3-6 m from application, 2 1/2 years",3.7%
same,Percent oleoresin,"[6]; 5% (wt), above 6 m from application, 2 1/2 years",3.1%
same,"Percent oleoresin, average","[6]; 5% (wt), average, dry weight, 2 1/2 years",3.6%
same,Visible lightwood,"[6]; 5 percent, 2 1/2 years after treatment",No visible lightwood was observed
same,Distance holding most of the increase in oleoresin production,"[6]; 5 percent, 5 ml in bore holes",0-3 meters
same,Increase of volatile versus nonvolatile oleoresins,"[6]; 5 percent, 5 ml in bore holes",A greater increase in the volatile (turpentine) than in the nonvolatile (resin) oleoresins
same,Rosin yield,[1]; 0 m above wound,2.6 Pct
same,Stimulation of visible lightwood formation,"[1]; 5 percent (wt.) alone, approximately 6 months",did not stimulate visible lightwood formation
same,Effect on lightwood stimulation by diquat and paraquat,[3]; Example V combinations,increases the lightwood stimulating effects of diquat and paraquat
same,pH of a typical aqueous solution,[7]; typical aqueous solution,1.0 pH
same,pH above which hydrolysis begins and ethylene is released,[7]; xylem transport system of the tree,> 5 pH
same,LD50 dosage,rats,"4,229 mg/kg"
C[n+]1ccc(-c2cc[n+](C)cc2)cc1 [paraquat],Rosin yield,[1]; 0 m above wound,8.1 Pct
same,Rosin yield,[1]; 0.5 m above wound,2.0 Pct
same,Height of oleoresin soaked wood (visible lightwood),"[1]; cut March 1974, approximately 6 months",less than in diquat-treated trees
same,Oleoresin content,[2]; 0.5-1 m above wound,12.2%
same,Oleoresin content,[2]; 1-1.5 m above wound,5.9%
same,Oleoresin content,[2]; 1.5-2.5 m above wound,3.7%
same,Oleoresin content,[2]; 2.5-4.5 m above wound,2.4%
same,Oleoresin content,[2]; 4.5-6.5 m above wound,2.0%
same,Visible lightwood height,[2],≤ 2 meters
same,"Oleoresin content, average per unit total volume",[2],4.6%
same,Oleoresin content,[2]; [9],10.7%
same,Average lightwood height,[3]; [10],1.4 meters
same,Average lightwood height,[3]; bipyridilium 2% (wt) in total,2.8 meters
same,Extractive content in total merchantable length,[4]; bipyridilium 0.5% (wt),14.8 lbs. extractives per average tree
same,Extractive content in total merchantable length,[4]; bipyridilium 2% (wt),17.1 lbs. extractives per average tree
same,endogenous ethylene production,[8],marked stimulation of endogenous ethylene production
same,respiration rates,[8],rapid increase in respiration rates
same,LD50 dosage,rats,100 mg/kg
C=C [ethylene],toxic concentration of gaseous ethylene,mice,"950,000 ppm"
